Where only a bound is given, the exact number is not on record here.

The test system of data set [1] is rat. Conditions: Carcinogenicity, fischer, Oral, Gavage/Intubation, dose end: 103 week, group: systemic.
Data set [2] deals with rat. The conditions noted are these: Subchronic oral toxicity in rodents, fischer, Gavage/Intubation, dose end: 13 week, group: systemic.
The test system of data set [3] is rat. The conditions noted are these: Prenatal developmental toxicity study, sprague dawley, Oral, Gavage/Intubation, dose end: 20 GD.
The subject of data set [4] is mouse. Conditions: Sub-acute repeat dose toxicity; b6c3f1; Oral; Gavage/Intubation; dose end: 14 day; group: systemic; systemic / in life observation / mortality / mortality.
The test system of data set [5] is rat. The conditions noted are these: Sub-acute repeat dose toxicity, fischer, Oral, Gavage/Intubation, dose end: 14 day, group: systemic.
The test system of data set [6] is mouse. The conditions noted are these: Carcinogenicity; b6c3f1; Oral; Gavage/Intubation; dose end: 103 week; group: systemic; systemic / pathology microscopic / stomach / hyperplasia + systemic / pathology microscopic / stomach / inflammation.
Data set [7] has as its system rat. Conditions: Sub-acute repeat dose toxicity, sprague dawley, Oral, Gavage/Intubation, dose end: 36 day, group: systemic.
The test system of data set [8] is mouse. The conditions noted are these: Carcinogenicity, Oral, Feed, dose end: 720 day, group: systemic.
The subject of data set [9] is rat. The conditions noted are these: Fertility (Segment I); sprague dawley; Oral; Gavage/Intubation; dose end: 1 generation; group: parental; systemic / in life observation / body weight / body weight gain.
The mark [10] stands for this setting: systemic / pathology microscopic / liver / fibrosis + systemic / pathology microscopic / liver / hyperplasia + systemic / pathology ….
Setting [11] is: systemic / pathology microscopic / liver / pigmentation.
The mark [12] stands for this setting: systemic / pathology microscopic / liver / basophilic focus + systemic / pathology microscopic / liver / hypertrophy + systemic / pathology ….
Where [13] appears, read: group: developmental, developmental / developmental malformation / bone / ossification sites + systemic / in life observation / body weight / fetal weight.
The mark [14] stands for this setting: group: maternal, systemic / in life observation / body weight / body weight gain + systemic / in life observation / food consumption / food consumption + ….
[15] abbreviates: systemic / pathology gross / intestine large / enlarged + systemic / pathology gross / liver / mottling.
[16] abbreviates: systemic / in life observation / body weight / body weight gain + systemic / in life observation / water consumption / water consumption.
Where [17] appears, read: systemic / in life observation / water consumption / water consumption.
The mark [18] stands for this setting: systemic / hematology / [other] / [other] + systemic / in life observation / body weight / body weight gain + systemic / in life observation….
Where [19] appears, read: systemic / in life observation / mortality / mortality.

As for `C=CCOC(=O)c1ccccc1C(=O)OCC=C` [Diallyl phthalate], the LOAEL (usually the lowest tested level that showed an adverse finding) is 100 mg/kg/day in [1] (setting [10]); 200 mg/kg/day in [2] (setting [12]); more than 250 mg/kg/day in [3] (setting [13]); more than 250 mg/kg/day in [3] (setting [14]); more than 600 mg/kg/day in data set [4]; 200 mg/kg/day in data set [5] (systemic / pathology gross / liver / mottling + systemic / pathology gross / liver / discolored + systemic / pathology gross / liver / …). In data set [6], the LOAEL was 150 mg/kg/day. For the same compound, the NOAEL (in general, the highest tested level that showed no adverse finding) was 50 mg/kg/day in [1] (setting [10]); 100 mg/kg/day in data set [2] (systemic / in life observation / clinical signs / defecation (diarrhea) + systemic / in life observation / clinical signs / emaciation + …); not below 250 mg/kg/day in data set [3] (setting [13]); not below 250 mg/kg/day in data set [3] (setting [14]); not below 600 mg/kg/day in data set [4]; 100 mg/kg/day in data set [5] (systemic / pathology gross / liver / discolored + systemic / pathology gross / liver / enlarged + systemic / pathology gross / liver / …). Further, the NOAEL in data set [6] was less than 150 mg/kg/day. Further, the LEL in data set [1] (setting [11]) was 50 mg/kg/day; in [2] (setting [12]) it was 50 mg/kg/day; in [3] (group: developmental, systemic / in life observation / body weight / fetal weight), 200 mg/kg/day; in [3] (group: maternal, systemic / pathology gross / liver / discolored + systemic / pathology gross / liver / mottling), 150 mg/kg/day; in data set [4] it was 400 mg/kg/day; in data set [5] (setting [15]) it was 50 mg/kg/day. In data set [6], the LEL worked out at 150 mg/kg/day. Also, the NEL in [1] (setting [11]) was less than 50 mg/kg/day; in data set [2] (setting [12]), 25 mg/kg/day; in [3] (setting [13]), 150 mg/kg/day; in data set [3] (setting [14]), 100 mg/kg/day; in [4], 200 mg/kg/day; in data set [5] (setting [15]), less than 50 mg/kg/day. Besides, in data set [6], the NEL is less than 150 mg/kg/day.
Regarding `CS(=O)(=O)N[C@@H](CCCCN)C(=O)NC[C@H](CC1(C(=O)N[C@@H](Cc2ccc(O)cc2)C(=O)O)CCCC1)C(=O)O` [Sampatrilat], the lowest-observed-adverse-effect level (LOAEL) in data set [7] (setting [16]) was more than 300 mg/kg/day; in [8] (setting [18]), more than 600 mg/kg/day; in [9], more than 1000 mg/kg/day. Besides, the no-observed-adverse-effect level (NOAEL) in data set [7] (setting [16]) was not below 300 mg/kg/day; in [8] (setting [18]), not below 600 mg/kg/day; in data set [9] it was not below 1000 mg/kg/day. In addition, the LEL in data set [7] (setting [17]) was 30 mg/kg/day; in data set [8] (setting [19]), 40 mg/kg/day; in [9], 200 mg/kg/day. The figures for the NEL in [7] (setting [17]), in [8] (setting [19]) and in data set [9] were less than 30 mg/kg/day, less than 40 mg/kg/day and 50 mg/kg/day, respectively.

Values taken from EPA's ToxRefDB 2.
